This is an account of results in ChEMBL document CHEMBL1681728, “An automated, polymer-assisted strategy for the preparation of urea and thiourea derivatives of 15-membered azalides as potential antimalarial chemotherapeutics” (Bioorg Med Chem, 2011).

Common to all, as to format: functional, organism-based
Test [1] relates to Plasmodium falciparum. Description: Antimalarial activity against multidrug-resistant Plasmodium falciparum TM91C235 assessed as inhibition of [3H]hypoxanthine incorporation after 96 hrs by microtiter plate scintillation counting.
In test [2] the test system is Plasmodium falciparum. Description: Antimalarial activity against chloroquine-sensitive Plasmodium falciparum D6 assessed as inhibition of [3H]hypoxanthine incorporation after 96 hrs by microtiter plate scintillation counting.
The test system of test [3] is Plasmodium falciparum. Description: Antimalarial activity against chloroquine-,pyrimethamine-resistant Plasmodium falciparum W2 assessed as inhibition of [3H]hypoxanthine incorporation after 96 hrs by microtiter plate scintillation counting.

The structures appear in SMILES notation.

In the case of `CC[C@H]1OC(=O)[C@H](C)[C@@H](O[C@H]2C[C@@](C)(OC)[C@@H](O)[C@H](C)O2)[C@H](C)[C@@H](O[C@@H]2O[C@H](C)C[C@H](N(C)C)[C@H]2O)[C@](C)(O)C[C@@H](C)CN(CCCNC(=S)Nc2cc(Cl)cc(Cl)c2)[C@H](C)[C@@H](O)[C@]1(C)O`, the IC50 turned out to be 55.4 nM in the test on Plasmodium falciparum [1], 116 nM in the test on Plasmodium falciparum [2] and 42.5 nM with Plasmodium falciparum [3].
The like results for `CC[C@H]1OC(=O)[C@H](C)[C@@H](O[C@H]2C[C@@](C)(OC)[C@@H](O)[C@H](C)O2)[C@H](C)[C@@H](O[C@@H]2O[C@H](C)C[C@H](N(C)C)[C@H]2O)[C@](C)(O)C[C@@H](C)CN(CCCNC(=S)NC(c2ccccc2)(c2ccccc2)c2ccccc2)[C@H](C)[C@@H](O)[C@]1(C)O` were, in that order, 31.9 nM, 125 nM and 37 nM.
The like results for `CC[C@H]1OC(=O)[C@H](C)[C@@H](O[C@H]2C[C@@](C)(OC)[C@@H](O)[C@H](C)O2)[C@H](C)[C@@H](O[C@@H]2O[C@H](C)C[C@H](N(C)C)[C@H]2O)[C@](C)(O)C[C@@H](C)CN(CCCNC(=S)Nc2cccc([N+](=O)[O-])c2)[C@H](C)[C@@H](O)[C@]1(C)O` were, in that order, 42.9 nM, 53.4 nM and 48.3 nM.
As for `CC[C@H]1OC(=O)[C@H](C)[C@@H](O[C@H]2C[C@@](C)(OC)[C@@H](O)[C@H](C)O2)[C@H](C)[C@@H](O[C@@H]2O[C@H](C)C[C@H](N(C)C)[C@H]2O)[C@](C)(O)C[C@@H](C)CN(CCCNC(=S)Nc2ccc([N+](=O)[O-])cc2)[C@H](C)[C@@H](O)[C@]1(C)O`, the concentration for half-maximal inhibition (IC50) worked out at 51.3 nM with Plasmodium falciparum [1], 103 nM in the test on Plasmodium falciparum [2] and 37.1 nM with Plasmodium falciparum [3].
As to `CC[C@H]1OC(=O)[C@H](C)[C@@H](O[C@H]2C[C@@](C)(OC)[C@@H](O)[C@H](C)O2)[C@H](C)[C@@H](O[C@@H]2O[C@H](C)C[C@H](N(C)C)[C@H]2O)[C@](C)(O)C[C@@H](C)CN(CCCNC(=S)Nc2cccc(C(F)(F)F)c2)[C@H](C)[C@@H](O)[C@]1(C)O`, the IC50 in the test on Plasmodium falciparum [1] is 54 nM; in the test with Plasmodium falciparum [2], 120 nM; with Plasmodium falciparum [3], 30.3 nM.
On to `CC[C@H]1OC(=O)[C@H](C)[C@@H](O[C@H]2C[C@@](C)(OC)[C@@H](O)[C@H](C)O2)[C@H](C)[C@@H](O[C@@H]2O[C@H](C)C[C@H](N(C)C)[C@H]2O)[C@](C)(O)C[C@@H](C)CN(CCCNC(=S)NC(c2ccccc2)c2ccccc2)[C@H](C)[C@@H](O)[C@]1(C)O`, for which the values for the IC50 with Plasmodium falciparum [1], in the test on Plasmodium falciparum [2] and in the test on Plasmodium falciparum [3] were 55 nM, 218 nM and 37.7 nM, respectively.
Taken in the same sequence, the figures for `CC[C@H]1OC(=O)[C@H](C)[C@@H](O[C@H]2C[C@@](C)(OC)[C@@H](O)[C@H](C)O2)[C@H](C)[C@@H](O[C@@H]2O[C@H](C)C[C@H](N(C)C)[C@H]2O)[C@](C)(O)C[C@@H](C)CN(CCCNC(=S)Nc2cccc(-c3ccccc3)c2OC)[C@H](C)[C@@H](O)[C@]1(C)O` were 55.3 nM, 58.1 nM and 114 nM.
Taken in the same sequence, the figures for `CC[C@H]1OC(=O)[C@H](C)[C@@H](O[C@H]2C[C@@](C)(OC)[C@@H](O)[C@H](C)O2)[C@H](C)[C@@H](O[C@@H]2O[C@H](C)C[C@H](N(C)C)[C@H]2O)[C@](C)(O)C[C@@H](C)CN(CCCNC(=S)Nc2ccc(Cl)c(C(F)(F)F)c2)[C@H](C)[C@@H](O)[C@]1(C)O` were 56.3 nM, 54.3 nM and 35 nM.
Taken in the same sequence, the figures for `CC[C@H]1OC(=O)[C@H](C)[C@@H](O[C@H]2C[C@@](C)(OC)[C@@H](O)[C@H](C)O2)[C@H](C)[C@@H](O[C@@H]2O[C@H](C)C[C@H](N(C)C)[C@H]2O)[C@](C)(O)C[C@@H](C)CN(CCCNC(=O)Nc2ccc3c(c2)OCCCO3)[C@H](C)[C@@H](O)[C@]1(C)O` were 60 nM, 28.1 nM and 40.8 nM.
For `CC[C@H]1OC(=O)[C@H](C)[C@@H](O[C@H]2C[C@@](C)(OC)[C@@H](O)[C@H](C)O2)[C@H](C)[C@@H](O[C@@H]2O[C@H](C)C[C@H](N(C)C)[C@H]2O)[C@](C)(O)C[C@@H](C)CN(CCCNC(=O)Nc2cccc3nsnc23)[C@H](C)[C@@H](O)[C@]1(C)O`, the results for the IC50 with Plasmodium falciparum [1], in the test on Plasmodium falciparum [2] and in the test on Plasmodium falciparum [3] were 64.7 nM, 266 nM and 69.2 nM, respectively.
As to `CC[C@H]1OC(=O)[C@H](C)[C@@H](O[C@H]2C[C@@](C)(OC)[C@@H](O)[C@H](C)O2)[C@H](C)[C@@H](O[C@@H]2O[C@H](C)C[C@H](N(C)C)[C@H]2O)[C@](C)(O)C[C@@H](C)CN(CCCNC(=S)Nc2ccc(S(=O)(=O)N3CCCCC3)cc2)[C@H](C)[C@@H](O)[C@]1(C)O`, the values for the half-maximal inhibitory concentration (IC50) with Plasmodium falciparum [1], with Plasmodium falciparum [2] and in the test on Plasmodium falciparum [3] were 68 nM, 174 nM and 53 nM, respectively.
The like results for `CC[C@H]1OC(=O)[C@H](C)[C@@H](O[C@H]2C[C@@](C)(OC)[C@@H](O)[C@H](C)O2)[C@H](C)[C@@H](O[C@@H]2O[C@H](C)C[C@H](N(C)C)[C@H]2O)[C@](C)(O)C[C@@H](C)CN(CCCNC(=S)Nc2ccc([N+](=O)[O-])cc2OC)[C@H](C)[C@@H](O)[C@]1(C)O` were, in that order, 69.7 nM, 74.5 nM and 50.1 nM.
Taken in the same sequence, the figures for `CC[C@H]1OC(=O)[C@H](C)[C@@H](O[C@H]2C[C@@](C)(OC)[C@@H](O)[C@H](C)O2)[C@H](C)[C@@H](O[C@@H]2O[C@H](C)C[C@H](N(C)C)[C@H]2O)[C@](C)(O)C[C@@H](C)CN(CCCNC(=O)Nc2cccc(C(F)(F)F)c2)[C@H](C)[C@@H](O)[C@]1(C)O` were 72.8 nM, 257 nM and 135 nM.
The like results for `CC[C@H]1OC(=O)[C@H](C)[C@@H](O[C@H]2C[C@@](C)(OC)[C@@H](O)[C@H](C)O2)[C@H](C)[C@@H](O[C@@H]2O[C@H](C)C[C@H](N(C)C)[C@H]2O)[C@](C)(O)C[C@@H](C)CN(CCCNC(=S)Nc2ccc(F)c(F)c2F)[C@H](C)[C@@H](O)[C@]1(C)O` were, in that order, 73.7 nM, 449 nM and 165 nM.
For `CC[C@H]1OC(=O)[C@H](C)[C@@H](O[C@H]2C[C@@](C)(OC)[C@@H](O)[C@H](C)O2)[C@H](C)[C@@H](O[C@@H]2O[C@H](C)C[C@H](N(C)C)[C@H]2O)[C@](C)(O)C[C@@H](C)CN(CCCNC(=S)Nc2ccc(C#N)cc2)[C@H](C)[C@@H](O)[C@]1(C)O`, the IC50 turned out to be 78.2 nM in the test on Plasmodium falciparum [1], 132 nM in the test with Plasmodium falciparum [2] and 50 nM with Plasmodium falciparum [3].
Take `CC[C@H]1OC(=O)[C@H](C)[C@@H](O[C@H]2C[C@@](C)(OC)[C@@H](O)[C@H](C)O2)[C@H](C)[C@@H](O[C@@H]2O[C@H](C)C[C@H](N(C)C)[C@H]2O)[C@](C)(O)C[C@@H](C)CN(CCCNC(=O)Nc2ccc(C(C)C)cc2)[C@H](C)[C@@H](O)[C@]1(C)O`: the IC50 in the test with Plasmodium falciparum [1] turned out to be 78.3 nM; with Plasmodium falciparum [2], 225 nM; in the test with Plasmodium falciparum [3], 70.9 nM.
`CC[C@H]1OC(=O)[C@H](C)[C@@H](O[C@H]2C[C@@](C)(OC)[C@@H](O)[C@H](C)O2)[C@H](C)[C@@H](O[C@@H]2O[C@H](C)C[C@H](N(C)C)[C@H]2O)[C@](C)(O)C[C@@H](C)CN(CCCNC(=O)Nc2ccc(C(F)(F)F)cc2)[C@H](C)[C@@H](O)[C@]1(C)O`: the results for the IC50 in the test on Plasmodium falciparum [1], in the test with Plasmodium falciparum [2] and in the test on Plasmodium falciparum [3] were 84.2 nM, 160 nM and 74.6 nM, respectively.
Taken in the same sequence, the figures for `CC[C@H]1OC(=O)[C@H](C)[C@@H](O[C@H]2C[C@@](C)(OC)[C@@H](O)[C@H](C)O2)[C@H](C)[C@@H](O[C@@H]2O[C@H](C)C[C@H](N(C)C)[C@H]2O)[C@](C)(O)C[C@@H](C)CN(CCCNC(=S)Nc2ccc(Cl)c(Cl)c2)[C@H](C)[C@@H](O)[C@]1(C)O` were 84.2 nM, 296 nM and 229 nM.
Taken in the same sequence, the figures for `CC[C@H]1OC(=O)[C@H](C)[C@@H](O[C@H]2C[C@@](C)(OC)[C@@H](O)[C@H](C)O2)[C@H](C)[C@@H](O[C@@H]2O[C@H](C)C[C@H](N(C)C)[C@H]2O)[C@](C)(O)C[C@@H](C)CN(CCCNC(=S)NCCN2CCOCC2)[C@H](C)[C@@H](O)[C@]1(C)O` were 3320 nM, 12400 nM and 2090 nM.
For the molecule `CC[C@H]1OC(=O)[C@H](C)[C@@H](O[C@H]2C[C@@](C)(OC)[C@@H](O)[C@H](C)O2)[C@H](C)[C@@H](O[C@@H]2O[C@H](C)C[C@H](N(C)C)[C@H]2O)[C@](C)(O)C[C@@H](C)CN(CCCNC(=S)NCCCN2CCOCC2)[C@H](C)[C@@H](O)[C@]1(C)O`, the IC50 in the test with Plasmodium falciparum [1] is 5090 nM; in the test on Plasmodium falciparum [2], 7010 nM; in the test on Plasmodium falciparum [3] it was 1270 nM.
As for `CC[C@H]1OC(=O)[C@H](C)[C@@H](O[C@H]2C[C@@](C)(OC)[C@@H](O)[C@H](C)O2)[C@H](C)[C@@H](O[C@@H]2O[C@H](C)C[C@H](N(C)C)[C@H]2O)[C@](C)(O)C[C@@H](C)CN(CCCNC(=S)NCCCN(CC)CC)[C@H](C)[C@@H](O)[C@]1(C)O`, the half-maximal inhibitory concentration (IC50) in the test with Plasmodium falciparum [1] came out at 12400 nM; in the test with Plasmodium falciparum [2] it was 794 nM; in the test on Plasmodium falciparum [3], 3130 nM.
For `CC[C@H]1OC(=O)[C@H](C)[C@@H](O[C@H]2C[C@@](C)(OC)[C@@H](O)[C@H](C)O2)[C@H](C)[C@@H](O[C@@H]2O[C@H](C)C[C@H](N(C)C)[C@H]2O)[C@](C)(O)C[C@@H](C)CN(CCCNC(=O)Nc2c(C)noc2C)[C@H](C)[C@@H](O)[C@]1(C)O`, the half-inhibitory concentration (IC50) in the test with Plasmodium falciparum [1], in the test with Plasmodium falciparum [2] and with Plasmodium falciparum [3] was 12800 nM throughout.
For the molecule `CC[C@H]1OC(=O)[C@H](C)[C@@H](O[C@H]2C[C@@](C)(OC)[C@@H](O)[C@H](C)O2)[C@H](C)[C@@H](O[C@@H]2O[C@H](C)C[C@H](N(C)C)[C@H]2O)[C@](C)(O)C[C@@H](C)CN(CCCNC(=S)NCCCl)[C@H](C)[C@@H](O)[C@]1(C)O`, the 50% inhibitory concentration (IC50) in the test with Plasmodium falciparum [1], in the test on Plasmodium falciparum [2] and with Plasmodium falciparum [3] was 12800 nM throughout.
